Assay results from patent US11661426B2, “Imidazole-containing inhibitors of ALK2 kinase” (BioCryst Pharmaceuticals, Inc., priority 2017, dated 2023).
pIC50: −log10 of the molar value.

Target: ALK2 (Homo sapiens (Human), UniProt Q04771)
Assay: ALK2 inhibition, LanthaScreen Eu Kinase Binding Assay (ThermoFisher Scientific / Life Technologies)
Conditions: read-out: Measured Ki (IC50) Value for Compounds: IC50
Description: Biochemical assays to measure the inhibitory effects of the compounds were performed by ThermoFisher Scientific (Life Technologies). ALK2 inhibition was tested using LanthaScreen™ Eu Kinase Binding Assay screening protocol.

Chain of ALK2 (Q04771 21-509): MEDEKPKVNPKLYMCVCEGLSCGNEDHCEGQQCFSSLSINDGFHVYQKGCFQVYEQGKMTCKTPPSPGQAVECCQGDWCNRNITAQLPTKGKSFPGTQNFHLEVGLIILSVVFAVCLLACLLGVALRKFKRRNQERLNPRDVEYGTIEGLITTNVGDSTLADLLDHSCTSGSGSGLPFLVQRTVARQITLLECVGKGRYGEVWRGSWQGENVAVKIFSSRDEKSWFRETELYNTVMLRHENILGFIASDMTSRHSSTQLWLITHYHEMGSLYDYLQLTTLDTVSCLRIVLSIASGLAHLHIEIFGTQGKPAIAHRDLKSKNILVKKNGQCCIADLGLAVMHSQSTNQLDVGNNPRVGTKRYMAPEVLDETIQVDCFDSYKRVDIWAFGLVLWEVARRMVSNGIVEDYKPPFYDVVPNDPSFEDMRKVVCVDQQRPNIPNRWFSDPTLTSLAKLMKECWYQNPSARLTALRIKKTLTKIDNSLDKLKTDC

COc1cc(-n2cnc(Nc3nc(N4CCC[C@H]4C(N)=O)c4cccc(OC(C)C)c4n3)c2)cc(OC)c1OC [Compound 205b, (S)-1-(8-isopropoxy-2-((1-(3,4,5-trimethoxyphenyl)-1H-imidazol-4-yl)amino)quinazolin-4-yl)pyrrolidine-2-carboxamide]
pIC50: 6.00 to 7.00

COc1cc(-n2cnc(Nc3nc4c(c(N5CCC[C@H]5CO)n3)CCN(Cc3cccc(C#N)c3)C4)c2)cc(OC)c1OC [Compound 220a, (S)-3-((4-(2-(hydroxymethyl)pyrrolidin-1-yl)-2-((1-(3,4,5-trimethoxyphenyl)-1H-imidazol-4-yl)amino)-5,6-dihydropyrido[3,4-d]pyrimidin-7(8H)-yl)methyl)benzonitrile]
pIC50: > 7.00

COc1cc(-n2cnc(Nc3nc(N4CCC[C@H]4CO)c4c(C)nn(CC5CCCCC5)c4n3)c2)cc(OC)c1OC [Compound 438c, (S)-(1-(1-(cyclohexylmethyl)-3-methyl-6-((1-(3,4,5-trimethoxyphenyl)-1H-imidazol-4-yl)amino)-1H-pyrazolo[3,4-d]pyrimidin-4-yl)pyrrolidin-2-yl)methanol]
pIC50: > 7.00

C[C@H](Nc1nc(Nc2cn(-c3ccccc3)cn2)c2ccccc2n1)c1ccccc1 [Compound 24b, (S)—N4-(1-phenyl-1H-imidazol-4-yl)-N2-(1-phenylethyl)quinazoline-2,4-diamine]
pIC50: 6.00 to 7.00

COc1cc(-n2cnc(Nc3nc(N4CCC[C@H]4CO)c4c(C)nn(C5CCCCC5)c4n3)c2)cc(OC)c1OC [Compound 439c, (S)-(1-(1-cyclohexyl-3-methyl-6-((1-(3,4,5-trimethoxyphenyl)-1H-imidazol-4-yl)amino)-1H-pyrazolo[3,4-d]pyrimidin-4-yl)pyrrolidin-2-yl)methanol]
pIC50: > 7.00

OC[C@@H]1CCCN1c1nc(Nc2cn(-c3ccnc4ccccc34)cn2)c2cccn2n1 [Compound 448e, (S)-(1-(4-((1-(quinolin-4-yl)-1H-imidazol-4-yl)amino)pyrrolo[2,1-f][1,2,4]triazin-2-yl)pyrrolidin-2-yl)methanol]
pIC50: > 7.00

COc1cc(-n2cnc(Nc3nc4c(c(N5CCC[C@H]5CO)n3)CN(C(=O)C3CC3)CC4)c2)cc(OC)c1OC [Compound 239a, (S)-cyclopropyl(4-(2-(hydroxymethyl)pyrrolidin-1-yl)-2-((1-(3,4,5-trimethoxyphenyl)-1H-imidazol-4-yl)amino)-7,8-dihydropyrido[4,3-d]pyrimidin-6(5H)-yl)methanone]
pIC50: > 7.00

COc1cc(-n2cnc(Nc3nc(N4CCC[C@H]4CO)nc4sccc34)c2)cc(OC)c1OC [Compound 84b, (S)-(1-(4-((1-(3,4,5-trimethoxyphenyl)-1H-imidazol-4-yl)amino)thieno[2,3-d]pyrimidin-2-yl)pyrrolidin-2-yl)methanol]
pIC50: > 7.00

COc1cc(-n2cnc(Nc3nc(N4CCC[C@H]4CO)c4sccc4n3)c2)cc(OC)c1OC [Compound 138b, (S)-(1-(2-((1-(3,4,5-trimethoxyphenyl)-1H-imidazol-4-yl)amino)thieno[3,2-d]pyrimidin-4-yl)pyrrolidin-2-yl)methanol]
pIC50: > 7.00

COc1cc(-n2cnc(Nc3nc(N4CCC[C@H]4CO)nc4c3CCN(C(=O)OC(C)(C)C)C4)c2)cc(OC)c1OC [Compound 183b, (S)-tert-butyl 2-(2-(hydroxymethyl)pyrrolidin-1-yl)-4-((1-(3,4,5-trimethoxyphenyl)-1H-imidazol-4-yl)amino)-5,6-dihydropyrido[3,4-d]pyrimidine-7(8H)-carboxylate]
pIC50: > 7.00

Nc1n[nH]c2ccccc12 [Compound 353a, 1H-indazol-3-amine]
pIC50: < 6.00

COc1ccc(-n2cnc(Nc3nc(N4CCC[C@H]4CO)nn4cccc34)c2)cc1OC [Compound 73c, (S)-(1-(4-((1-(3,4-dimethoxyphenyl)-1H-imidazol-4-yl)amino)pyrrolo[2,1-f][1,2,4]triazin-2-yl)pyrrolidin-2-yl)methanol]
pIC50: > 7.00

Cn1cnc(-n2cnc(Nc3nc(N4CCCC4c4ccccn4)nn4cccc34)c2)c1 (stereo not shown) [Compound 81c, N-(1′-methyl-1′H-[1,4′-biimidazol]-4-yl)-2-(2-(pyridin-2-yl)pyrrolidin-1-yl)pyrrolo[2,1-f][1,2,4]triazin-4-amine]
pIC50: < 6.00

OC[C@@H]1CCCN1c1nc(Nc2cn(-c3ccnc4ccsc34)cn2)c2cccn2n1 [Compound 443e, (S)-(1-(4-((1-(thieno[3,2-b]pyridin-7-yl)-1H-imidazol-4-yl)amino)pyrrolo[2,1-f][1,2,4]triazin-2-yl)pyrrolidin-2-yl)methanol]
pIC50: > 7.00

COc1cc(-n2cnc(Nc3nc(N4CCC[C@H]4C(N)=O)c4ncsc4n3)c2)cc(OC)c1OC [Compound 196b, (S)-1-(5-((1-(3,4,5-trimethoxyphenyl)-1H-imidazol-4-yl)amino)thiazolo[5,4-d]pyrimidin-7-yl)pyrrolidine-2-carboxamide]
pIC50: > 7.00

COc1cc(-n2cnc(Nc3nc(N4CCC[C@H]4CO)c4c(C)nn(C5CCOCC5)c4n3)c2)cc(OC)c1OC [Compound 454c, (S)-(1-(3-methyl-1-(tetrahydro-2H-pyran-4-yl)-6-((1-(3,4,5-trimethoxyphenyl)-1H-imidazol-4-yl)amino)-1H-pyrazolo[3,4-d]pyrimidin-4-yl)pyrrolidin-2-yl)methanol]
pIC50: > 7.00

Cn1cnc(Nc2nc(Cl)nc3ccoc23)c1 [Compound 1b, 2-chloro-N-(1-methyl-1H-imidazol-4-yl)furo[3,2-d]pyrimidin-4-amine]
pIC50: < 6.00

COc1cc(-n2cnc(Nc3nc(N4CCC[C@H]4CO)c4cccc(OC(C)C)c4n3)c2)cc(OC)c1OC [Compound 200b, (S)-(1-(8-isopropoxy-2-((1-(3,4,5-trimethoxyphenyl)-1H-imidazol-4-yl)amino)quinazolin-4-yl)pyrrolidin-2-yl)methanol]
pIC50: > 7.00

COc1cc(-n2cnc(Nc3nc(N4CCC[C@H]4CO)c4c(C)nn(C5CCCCO5)c4n3)c2)cc(OC)c1OC (stereo partly drawn) [Compound 402b, ((2S)-1-(3-methyl-1-(tetrahydro-2H-pyran-2-yl)-6-((1-(3,4,5-trimethoxyphenyl)-1H-imidazol-4-yl)amino)-1H-pyrazolo[3,4-d]pyrimidin-4-yl)pyrrolidin-2-yl)methanol]
pIC50: > 7.00

NC(=O)[C@@H]1CCCN1c1nc(Nc2cn(-c3ccc4c(c3)OCO4)cn2)c2ccsc2n1 [Compound 429a, (S)-1-(4-((1-(benzo[d][1,3]dioxol-5-yl)-1H-imidazol-4-yl)amino)thieno[2,3-d]pyrimidin-2-yl)pyrrolidine-2-carboxamide]
pIC50: 6.00 to 7.00

COc1cc(-n2cnc(Nc3nc4c(c(N5CCC[C@@H]5CO)n3)COC4)c2)cc(OC)c1OC [Compound 280b, (R)-(1-(2-((1-(3,4,5-trimethoxyphenyl)-1H-imidazol-4-yl)amino)-5,7-dihydrofuro[3,4-d]pyrimidin-4-yl)pyrrolidin-2-yl)methanol]
pIC50: > 7.00

CNC(=O)c1cc(C2CC2)cc(-n2cnc(Nc3nc(N4CCC[C@H]4CO)nn4cccc34)c2)c1 [Compound 468g, (S)-3-cyclopropyl-5-(4-((2-(2-(hydroxymethyl)pyrrolidin-1-yl)pyrrolo[2,1-f][1,2,4]triazin-4-yl)amino)-1H-imidazol-1-yl)-N-methylbenzamide]
pIC50: < 6.00

OC[C@@H]1CCCN1c1nc(Nc2cn(-c3ccc4c(c3)OC(F)(F)O4)cn2)c2occc2n1 [Compound 339e, (S)-(1-(4-(1-(2,2-difluorobenzo[d][1,3]dioxol-5-yl)-1H-imidazol-4-ylamino)furo[3,2-d]pyrimidin-2-yl)pyrrolidin-2-yl)methanol]
pIC50: 6.00 to 7.00

COc1cc(-n2cnc(Nc3nc(N4CCC[C@H]4CO)c4ccsc4n3)c2)cc(OC)c1OC [Compound 133b, (S)-(1-(2-((1-(3,4,5-trimethoxyphenyl)-1H-imidazol-4-yl)amino)thieno[2,3-d]pyrimidin-4-yl)pyrrolidin-2-yl)methanol]
pIC50: > 7.00

COc1cc(-n2cnc(Nc3nc(N4CCC[C@@H]4C(N)=O)nc4scnc34)c2)cc(OC)c1OC [Compound 318a, (R)-1-(7-((1-(3,4,5-trimethoxyphenyl)-1H-imidazol-4-yl)amino)thiazolo[5,4-d]pyrimidin-5-yl)pyrrolidine-2-carboxamide]
pIC50: > 7.00

COc1cc(-n2cnc(Nc3cc(C(=O)N4CCCC4)cc4ccoc34)c2)cc(OC)c1OC [Compound 412a, pyrrolidin-1-yl(7-((1-(3,4,5-trimethoxyphenyl)-1H-imidazol-4-yl)amino)benzofuran-5-yl)methanone]
pIC50: 6.00 to 7.00

COc1cc(-n2cnc(Nc3nc4c(c(N5CCC[C@H]5CO)n3)CCN(Cc3ccccc3)C4)c2)cc(OC)c1OC [Compound 165b, (S)-(1-(7-benzyl-2-((1-(3,4,5-trimethoxyphenyl)-1H-imidazol-4-yl)amino)-5,6,7,8-tetrahydropyrido[3,4-d]pyrimidin-4-yl)pyrrolidin-2-yl)methanol]
pIC50: > 7.00

COc1cc(-n2cnc(Nc3nc(N4CCC[C@H]4CO)c4cccn4n3)c2)ccc1Cl [Compound 250d, (S)-(1-(2-((1-(4-chloro-3-methoxyphenyl)-1H-imidazol-4-yl)amino)pyrrolo[2,1-f][1,2,4]triazin-4-yl)pyrrolidin-2-yl)methanol]
pIC50: < 6.00

OC[C@@H]1CCCN1c1nc(Nc2cn(-c3cccc4ncccc34)cn2)c2cccn2n1 [Compound 76c, (S)-(1-(4-((1-(quinolin-5-yl)-1H-imidazol-4-yl)amino)pyrrolo[2,1-f][1,2,4]triazin-2-yl)pyrrolidin-2-yl)methanol]
pIC50: > 7.00

COc1cc(-c2cnc(Nc3nc(N4CCC[C@H]4CO)c4cccn4n3)s2)cc(OC)c1OC [Compound 476a, (S)-(1-(2-((5-(3,4,5-trimethoxyphenyl)thiazol-2-yl)amino)pyrrolo[2,1-f][1,2,4]triazin-4-yl)pyrrolidin-2-yl)methanol]
pIC50: > 7.00

COc1cc(-n2cnc(Nc3ncc4c(n3)CCN(Cc3ccccc3)C4)c2)cc(OC)c1OC [Compound 201b, 6-benzyl-N-(1-(3,4,5-trimethoxyphenyl)-1H-imidazol-4-yl)-5,6,7,8-tetrahydropyrido[4,3-d]pyrimidin-2-amine]
pIC50: > 7.00
